The values below come from ChEMBL document CHEMBL3045701, “Comprehensive structureactivity relationship analysis of substituted 5-(biphenyl-4-ylmethyl) pyrazoles derivatives as AT1 selective angiotensin II receptor antagonists: 2D and kNNMFA QSAR approach” (Med Chem Res, 2013).

For the test, the target named is T1, Angiotensin II receptor (AT-1) type-1 (Rattus norvegicus, UniProt P29089+P25095).
T1 sequence (P29089 whole entry): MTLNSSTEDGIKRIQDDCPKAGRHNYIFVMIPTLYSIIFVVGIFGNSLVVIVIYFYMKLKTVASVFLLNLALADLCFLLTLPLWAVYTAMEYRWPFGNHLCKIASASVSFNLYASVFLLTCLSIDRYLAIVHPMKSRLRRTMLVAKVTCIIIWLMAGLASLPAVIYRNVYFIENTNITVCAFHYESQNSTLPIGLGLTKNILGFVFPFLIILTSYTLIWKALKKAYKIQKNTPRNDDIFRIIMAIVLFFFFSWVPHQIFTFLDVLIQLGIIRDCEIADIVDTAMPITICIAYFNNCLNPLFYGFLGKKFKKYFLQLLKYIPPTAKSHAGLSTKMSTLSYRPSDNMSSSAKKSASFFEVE
T1 sequence (P25095 whole entry): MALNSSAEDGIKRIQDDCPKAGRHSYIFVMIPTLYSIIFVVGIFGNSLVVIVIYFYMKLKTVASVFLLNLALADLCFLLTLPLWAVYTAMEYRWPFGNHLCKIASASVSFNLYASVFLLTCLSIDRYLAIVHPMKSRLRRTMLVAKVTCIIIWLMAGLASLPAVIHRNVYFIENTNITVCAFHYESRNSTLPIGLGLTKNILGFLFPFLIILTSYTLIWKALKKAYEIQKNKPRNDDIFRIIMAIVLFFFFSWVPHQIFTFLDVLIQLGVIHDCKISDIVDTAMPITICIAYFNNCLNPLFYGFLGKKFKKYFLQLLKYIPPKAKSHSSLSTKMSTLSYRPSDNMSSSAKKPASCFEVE
Description: Antagonist activity at AT1 receptor in Rattus norvegicus (rat) liver.
In general, IC50 refers to the midpoint of a concentration-inhibition curve. Read a high IC50 as weaker potency in that assay. As usually defined, the pIC50 is the IC50 on a negative log10 scale, so that one unit is a factor of ten. A higher pIC50 goes with a low IC50. `CCCCc1nn(CCC)c(Cc2ccc(-c3ccccc3-c3nnn[nH]3)cc2)c1C(=O)O` registered an IC50 of 3 nM and a negative-log IC50 (pIC50) of 8.522.
`CCCn1nc(C2CC2)c(C(=O)O)c1Cc1ccc(-c2ccccc2S(=O)(=O)Nc2ccccc2)cc1` had an IC50 of 18 nM and a negative logarithm of the IC50 (pIC50) of 7.744.
For `CCCn1nc(C(C)C)c(C(=O)O)c1Cc1ccc(-c2ccccc2C(=O)O)cc1`, the IC50 amounted to 130 nM and the pIC50 is given as 6.886.
The corresponding values for `CCCCOC(=O)NS(=O)(=O)c1ccccc1-c1ccc(Cc2c(C(=O)O)cnn2CCCC)cc1` are 13 nM and 7.522.
Molecule `CCCCn1nc(C)c(C(=O)O)c1Cc1ccc(-c2ccccc2-c2nn[nH]n2)cc1` had a pIC50 of 8.567.
`CCCCn1nc(C)c(C(=O)O)c1Cc1ccc(-c2ccccc2S(=O)(=O)Nc2ccccc2)cc1`: the IC50 stood at 12 nM and the pIC50 came out at 7.92.
`Cc1nn(-c2ccccc2)c(Cc2ccc(-c3ccccc3-c3nn[nH]n3)cc2)c1C(=O)O` came in with a pIC50 of 7.102.
Molecule `CCCn1nc(C2CC2)c(C(N)=O)c1Cc1ccc(-c2ccccc2S(=O)(=O)Nc2ccccc2)cc1` gave an IC50 of 7.4 nM and a pIC50 of 8.13.
In turn, `CCCn1nc(C(C)C)c(C(=O)O)c1Cc1ccc(-c2ccccc2NS(=O)(=O)C(F)(F)F)cc1` showed a half-maximal inhibitory concentration (IC50) of 74 nM and a pIC50 of 7.13.
